Literature values as cited in patent US20070071689A1, “Advantageous combination for inhalation of nacystelyn and bronchodilators” (GALEPHAR M/F, priority 2003, published 2007).

Columns and labels:
[1] = administration via the inhalation route
[2] = in comparison to ACC
cystic fibrosis patients = conditions: in comparison to placebo

Question: For `CC(=O)N[C@@H](CS)C(=O)O` [ACC, acetylcysteine], which “bronchospasms (side effects)” value [1] is on record?
Answer: The value was “can be responsible for reflex bronchospasms”.

Question: With L-Lysine N-Acetylcysteinate [NAL] as the compound, how does the active dose [2] read?
Answer: Its active dose is “active at lower doses than ACC”.

Question: What about the “mucolytic and antioxidant activity” value [2] of the same compound?
Answer: Its value is “superior to the activity of ACC”.

Question: And the “number and severity of lung exacerbations” value (cystic fibrosis patients)?
Answer: Its value is “significantly decrease the number and severity of lung exacerbations”.
